This note sets out measurements from patent US8492582B2, “N-acyl anthranilic acid derivative or salt thereof” (Toyama Chemical Co., Ltd., priority 2009, dated 2013).

Counter-ions that a name gives are not always drawn.

The subject of one assay is type I collagen α1 chain mRNA in WI-38 cells. Put plainly: Type I collagen α1 chain mRNA expression inhibition test. To be noted: Homo sapiens, WI-38, 24 h, read-out: Inhibition rate (%) at 10 μmol/L. The format is cell-based. The protocol:
Human embryonic lung fibroblast cell line WI-38 cells were suspended in a Dulbecco's modified Eagle's medium containing 10% fetal calf serum, and 7.5×10^4 cells were inoculated on a 12-well plate and cultured for 3 days, or 1.5×10^5 cells were inoculated and cultured for 2 days. After the growth of the cells to a subconfluent state, the culture medium was changed to a Dulbecco's modified Eagle's medium containing 0.4% fetal calf serum and 50 μg/mL ascorbic acid, and the cells were further cultured for 24 hours. Then, a test compound was added thereto, and, one hour later, TGF-β1 was added at a final concentration of 1 ng/mL. Twenty-four hours after the addition, the total RNA was extracted from the cells using an RNA extraction kit (SV Total RNA Isolation System, Promega), and cDNA was synthesized using a reverse transcriptase (ReverTra Ace, TOYOBO). The expression level of the type I collagen al chain mRNA was analyzed with a real-time PCR instrument (ABI PRISM 7700 Sequence Detection System, Applied Biosystems) by a real-time PCR method using a premix reagent of real-time PCR (SYBR Premix Ex Taq or SYBR Premix Ex Taq II (Perfect Real Time), TaKaRa). A PCR reaction was conducted with diluted cDNA as a template, using primers specific for a type I collagen α1 chain gene or a GAPDH gene as an internal standard, and the reaction product was measured. The PCR reaction was conducted by incubation at 95° C. for 10 seconds and 45 cycles of denaturation at 95° C. for 5 seconds and annealing/extension at 60° C. for 30 seconds. The expression level of the type I collagen α1 chain mRNA was corrected with GAPDH and was expressed as a relative value when the expression level obtained in the absence of the test compound was defined as 100%.
In the case of `O=C(Nc1cc(-c2ccccc2)ccc1C(=O)O)c1ccc(-c2cccnc2)cc1O` [Example 13a, sodium 2-(2-hydroxy-4-(pyridin-3-yl)benzamido)-4-phenylbenzoate], the inhibition at 10 µM was 93%.
For the compound `O=C(Nc1cc(-c2ccccc2)ccc1C(=O)O)c1cc(-c2ccncc2)ccc1O` [Example 19a, sodium 2-(2-hydroxy-5-(pyridin-4-yl)benzamido)-4-phenylbenzoate], the inhibition at 10 µM worked out at 83%.
`O=C(Nc1cc(-c2ccco2)ccc1C(=O)O)c1cc(-c2cccnc2)ccc1O` [Example 44a, sodium 4-(furan-2-yl)-2-(2-hydroxy-5-(pyridin-3-yl)benzamido)benzoate]: the inhibition at 10 µM came to 89%.
As for `O=C(Nc1cc(-c2ccoc2)ccc1C(=O)O)c1cc(-c2cccnc2)ccc1O` [Example 46a, sodium 4-(furan-3-yl)-2-(2-hydroxy-5-(pyridin-3-yl)benzamido)benzoate], the inhibition at 10 µM came out at 91%.
For `CN(CCN1CCCC1)c1ccc(O)c(C(=O)Nc2cc(-c3ccccc3)ccc2C(=O)O)c1` [Example 95a, sodium 2-(2-hydroxy-5-(methyl(2-(pyrrolidin-1-yl)ethyl)amino)benzamido)-4-phenylbenzoate], the inhibition at 10 µM was 88%.
For the compound `CN(C)CCN(C)c1ccc(C(=O)Nc2cc(-c3ccccc3)ccc2C(=O)O)c(O)c1` [Example 97a, sodium 2-(4-((2-(dimethylamino)ethyl)(methyl)amino)-2-hydroxybenzamido)-4-phenylbenzoate], the inhibition at 10 µM worked out at 83%.

Still in this assay, the particulars now being: Homo sapiens; 10 μmol/L test compound; WI-38 cells, TGF-β1 1 ng/mL, 24 hours; Table 4a; read-out: Inhibition rate (%) at 10 μmol/L.
Regarding `O=C(Nc1cc(-c2ccc3c(c2)ONO3)ccc1C(=O)O)c1cc(N2CCOCC2)ccc1O` [207a, 4-(Benzo-[1,3]-dioxazol-5-yl)-2-(2-hydroxy-5-(morpholin-4-yl)benzamido)benzoic acid], the inhibition at 10 µM amounted to 83%.
As to `CN1CCCCC1c1ccc(O)c(C(=O)Nc2cc(-c3ccccc3)ccc2C(=O)O)c1` (stereo not drawn) [217a, 2-(2-hydroxy-5-(1-methylpiperidin-2-yl)benzamido)-4-phenylbenzoic acid], the inhibition at 10 µM turned out to be 91%.
The same measure, in the same setting: the result for `CCN1CCC(c2ccc(O)c(C(=O)Nc3cc(-c4ccccc4)ccc3C(=O)O)c2)CC1` [222a, 2-(5-(1-ethylpiperidin-4-yl)-2-hydroxybenzamido)-4-phenylbenzoic acid] reads 85%; that for `O=C(Nc1cc(-c2ccccc2)ccc1C(=O)O)c1cc(C2CCN(CCO)CC2)ccc1O` [225a, 2-(2-hydroxy-5-(1-(2-hydroxyethyl)piperidin-4-yl)benzamido)-4-phenylbenzoic acid], 86%.
`O=C(Nc1cc(-c2ccccc2)ccc1C(=O)O)c1cc(Cl)ccc1O` [Example 2a, 2-(5-Chloro-2-hydroxybenzamido)-4-phenylbenzoic acid]: the inhibition at 10 µM was found to be 99%.
On the same count and under the same terms, the result for `Cc1ccc(O)c(C(=O)Nc2cc(-c3ccccc3)ccc2C(=O)O)c1` [Example 4a, 2-(2-Hydroxy-5-methylbenzamido)-4-phenylbenzoic acid] reads 97%.
Regarding `COc1ccc(C(=O)Nc2cc(-c3ccccc3)ccc2C(=O)O)c(O)c1` [Example 6a, 2-(2-Hydroxy-4-methoxybenzamido)-4-phenylbenzoic acid], the inhibition at 10 µM was 95%.
For `COc1ccc(O)c(C(=O)Nc2cc(-c3ccccc3)ccc2C(=O)O)c1` [Example 7a, 2-(2-Hydroxy-5-methoxybenzamido)-4-phenylbenzoic acid], the inhibition at 10 µM came out at 94%.
Take `O=C(O)c1ccc(-c2ccccc2)cc1NC(=O)c1cccc(-c2cccnc2)c1O` [Example 16a, Sodium 2-(2-hydroxy-3-(pyridin-3-yl)benzamido)-4-phenylbenzoate]: the inhibition at 10 µM turned out to be 80%.
In the case of `O=C(Nc1cc(-c2ccccc2)ccc1C(=O)O)c1cc(-n2cccn2)ccc1O` [Example 22a, 2-(2-hydroxy-5-(1H-pyrazol-1-yl)benzamido)-4-phenylbenzoic acid], the inhibition at 10 µM stood at 97%.
As for `O=C(Nc1cc(-c2ccccc2)ccc1C(=O)O)c1cc(-c2ccccn2)ccc1O` [Example 27a, 2-(2-hydroxy-5-(pyridin-2-yl)benzamido)-4-phenylbenzoic acid], the inhibition at 10 µM amounted to 98%.
On to `O=C(Nc1cc(-c2ccccc2)ccc1C(=O)O)c1cc(-c2ncccn2)ccc1O` [Example 29a, 2-(2-hydroxy-5-(pyrimidin-2-yl)benzamido)-4-phenylbenzoic acid], for which the inhibition at 10 µM came to 90%.
Still for that read-out and setting: the result for `O=C(Nc1cc(-c2ccccc2)ccc1C(=O)O)c1cc(-n2ccnc2)ccc1O` [Example 34a, 2-(2-Hydroxy-5-(1H-imidazol-1-yl)benzamido)-4-phenylbenzoic acid hydrochloride] reads 82%; that for `COc1ccccc1-c1ccc(C(=O)O)c(NC(=O)c2cc(-c3ccccn3)ccc2O)c1` [Example 35a, 2-(2-Hydroxy-5-(pyridin-2-yl)benzamido)-4-(2-methoxyphenyl)benzoic acid hydrochloride], 90%; that for `COc1ccccc1-c1ccc(C(=O)O)c(NC(=O)c2cc(-c3cccnc3)ccc2O)c1` [Example 37a, 2-(2-hydroxy-5-(pyridin-3-yl)benzamido)-4-(2-methoxyphenyl)benzoic acid], 94%.
With `Cc1cccc(C(=O)Nc2cc(-c3ccccc3)ccc2C(=O)O)c1O` [Example 41a, 2-(2-hydroxy-3-methylbenzamido)-4-phenylbenzoic acid], the inhibition at 10 µM was 99%.
As to `CN1CCC(c2ccc(O)c(C(=O)Nc3cc(-c4ccccc4)ccc3C(=O)O)c2)CC1` [Example 50a, 2-(2-hydroxy-5-(1-methylpiperidin-4-yl)benzamido)-4-phenylbenzoic acid], the inhibition at 10 µM is 75%.
For `O=C(Nc1cc(-c2ccco2)ccc1C(=O)O)c1cc(N2CCCCC2)ccc1O` [Example 65a, 4-(furan-2-yl)-2-(2-hydroxy-5-(piperidin-1-yl)benzamido)benzoic acid methanesulfonate], the inhibition at 10 µM was 71%.
Still for that read-out and setting: to `O=C(Nc1cc(-c2ccccc2)ccc1C(=O)O)c1cc(-c2ccco2)ccc1O` [Example 68a, 2-(5-(furan-2-yl)-2-hydroxybenzamido)-4-phenylbenzoic acid] belongs 98%.
`Nc1cccc(-c2ccc(O)c(C(=O)Nc3cc(-c4ccccc4)ccc3C(=O)O)c2)n1` [Example 73a, 2-(5-(6-aminopyridin-2-yl)-2-hydroxybenzamido)-4-phenylbenzoic acid]: the inhibition at 10 µM came to 96%.
For the compound `CN(C)c1ccc(O)c(C(=O)Nc2cc(-c3ccccc3)ccc2C(=O)O)c1` [Example 76a, 2-(5-(dimethylamino)-2-hydroxybenzamido)-4-phenylbenzoic acid hydrochloride], the inhibition at 10 µM was determined as 72%.
For the compound `O=C(Nc1cc(-c2ccccc2)ccc1C(=O)O)c1cc(N2CCC2)ccc1O` [Example 86a, 2-(5-(Azetidin-1-yl)-2-hydroxybenzamido)-4-phenylbenzoic acid hydrochloride], the inhibition at 10 µM came out at 85%.
As to `O=C(Nc1cc(-c2ccccc2)ccc1C(=O)O)c1cc(N2CCSCC2)ccc1O` [Example 89a, 2-(2-hydroxy-5-(thiomorpholin-4-yl)benzamido)-4-phenylbenzoic acid], the inhibition at 10 µM turned out to be 98%.
With `CN1CCN(c2ccc(O)c(C(=O)Nc3cc(-c4ccccc4)ccc3C(=O)O)c2)CC1` [Example 92a, 2-(2-hydroxy-5-(4-methylpiperazin-1-yl)benzamido)-4-phenylbenzoic acid dimethanesulfonate], the inhibition at 10 µM was determined as 84%.
